Results: ChEMBL document CHEMBL1201862, “PubChem BioAssay data set” (2004)
Where “and” joins values, the source holds several entries; their conditions need not be identical. Equal entries are not always repeated. Calls of active or inactive are those of the source.

Tests used:
[1] = biological target: Melanin-concentrating hormone receptor 1 (Homo sapiens, UniProt Q99705); assay: Late-stage fluorescence-based counterscreen for antagonists of the G-protein coupled receptor 7 (GPR7): cell-based dose response assay to identify antagonists of the melanin-concentrating hormone receptor 1 (MCHR1) Set 5.; type: functional
[2] = biological target: T1, Neuropeptides B/W receptor type 1 (Homo sapiens, UniProt P48145); assay: GPR7 antagonist potency, late-stage follow-up, cell-based, fluorescence, dose response, set 5 (AID 588566); type: functional
T1 sequence (P48145 whole entry): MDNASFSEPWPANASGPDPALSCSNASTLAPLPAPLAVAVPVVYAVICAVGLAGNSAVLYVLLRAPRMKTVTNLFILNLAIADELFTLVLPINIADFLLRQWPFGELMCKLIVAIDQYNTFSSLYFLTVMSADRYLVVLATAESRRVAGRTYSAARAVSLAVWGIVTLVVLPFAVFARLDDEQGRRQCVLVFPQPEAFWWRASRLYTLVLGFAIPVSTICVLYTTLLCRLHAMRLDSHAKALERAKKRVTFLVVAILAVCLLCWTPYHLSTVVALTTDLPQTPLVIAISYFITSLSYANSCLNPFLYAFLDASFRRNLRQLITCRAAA

[3] = biological target: T2, DNA dC->dU-editing enzyme APOBEC-3G (Homo sapiens, UniProt Q9HC16); type: functional
T2 sequence (Q9HC16 whole entry): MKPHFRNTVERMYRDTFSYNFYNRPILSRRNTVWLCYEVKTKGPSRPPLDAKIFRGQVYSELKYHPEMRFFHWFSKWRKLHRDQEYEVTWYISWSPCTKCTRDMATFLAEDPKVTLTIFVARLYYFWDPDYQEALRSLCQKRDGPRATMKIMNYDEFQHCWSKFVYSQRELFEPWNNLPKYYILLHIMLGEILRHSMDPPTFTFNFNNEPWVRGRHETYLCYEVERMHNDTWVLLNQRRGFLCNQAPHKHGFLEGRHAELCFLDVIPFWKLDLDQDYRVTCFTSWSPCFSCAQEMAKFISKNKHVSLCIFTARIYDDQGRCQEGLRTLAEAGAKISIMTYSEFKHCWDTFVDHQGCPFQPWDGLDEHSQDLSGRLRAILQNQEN

[4] = biological target: T2, DNA dC->dU-editing enzyme APOBEC-3G; assay: APOBEC3G deaminase inhibitors, SAR follow-up, biochemical, fluorescence, single-stranded DNA substrate (AID 602136); type: functional; conditions: read-out: IC50_Mean
[5] = biological target: T3, DNA dC->dU-editing enzyme APOBEC-3A (Homo sapiens, UniProt P31941); assay: SAR analysis of small molecule inhibitors of APOBEC3A DNA Deaminase via a fluorescence-based single-stranded DNA deaminase assay.; type: functional; conditions: read-out: IC50_Mean
T3 sequence (P31941 whole entry): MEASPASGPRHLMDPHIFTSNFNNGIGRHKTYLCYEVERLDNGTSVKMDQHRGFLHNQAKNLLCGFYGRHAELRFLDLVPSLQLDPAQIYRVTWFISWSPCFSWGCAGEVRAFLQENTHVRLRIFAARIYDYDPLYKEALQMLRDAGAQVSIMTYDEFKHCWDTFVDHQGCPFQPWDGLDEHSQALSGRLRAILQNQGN

[6] = inhibitors of intracellular T. cruzi replication, confirmation, NIH3T3 host cells, beta-gal luminescence (AID 2044); type: functional, cell-based;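 also: intracellular parasites grown in NIH/3T3 mouse fibroblasts as host cells; luminescent beta-galactosidase reporter signal from transgenic T. cruzi replicating inside host cells; inhibitors lower the luminescence signal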
[7] = biological target: T3, DNA dC->dU-editing enzyme APOBEC-3A; assay: SAR analysis of small molecule inhibitors of APOBEC3A DNA Deaminase via a fluorescence-based single-stranded DNA deaminase assay - Set 2.; type: functional; conditions: read-out: IC50_Mean
[8] = tested on: INS1; assay: beta cell apoptosis inhibitors, cytokine rescue, dose response, luminescence, retest (AID 449756); type: functional, cell-based; conditions: Rattus norvegicus;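 also: cell death triggered by IL-1 beta plus TNF-alpha plus IFN-gamma mixture; protective hits raise ATP signal compared with cytokine alone wells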
[9] = biological target: T3, DNA dC->dU-editing enzyme APOBEC-3A; assay: Dose Response confirmation of small molecule APOBEC3A DNA Deaminase Inhibitors via a fluorescence-based single-stranded DNA deaminase assay. [Related pubchem assays (depositor defined):AID493011, AID493024]; type: functional
[10] = biological target: FAD-linked sulfhydryl oxidase ALR (Homo sapiens, UniProt P55789); assay: inhibitors of human ALR sulfhydryl oxidase, dose response, biochemical, H2O2 detection, luminescence, cherry-pick (AID 493248)
FAD-linked sulfhydryl oxidase ALR, sequence (P55789 whole entry): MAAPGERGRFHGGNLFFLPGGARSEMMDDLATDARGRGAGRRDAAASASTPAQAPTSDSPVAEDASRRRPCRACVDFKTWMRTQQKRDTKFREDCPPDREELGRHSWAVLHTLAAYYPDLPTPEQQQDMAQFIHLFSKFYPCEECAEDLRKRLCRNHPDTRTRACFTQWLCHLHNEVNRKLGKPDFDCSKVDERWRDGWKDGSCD

[11] = cytotoxicity toward NIH3T3 fibroblasts, dose response, counter-screen, cell-based, ATP luminescence, mouse fibroblasts (AID 2010); type: functional;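 also: cells exposed to compound for about 90 hours before reading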
[12] = biological target: Beta-lactamase (Pseudomonas aeruginosa, UniProt Q79MP6);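 also: biochemical dose-response test of metallo-beta-lactamase enzyme inhibition, read out by epi-absorbance; purified recombinant IMP-1 metallo-beta-lactamase with nitrocefin as substrate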
[13] = inhibitors of firefly luciferase expression or activity, dose response, H4 neuroglioma cells, luminescence (AID 1990); type: functional, cell-based
[14] = Luminescence Cell-Based Dose Response HTS to Identify Inhibitors of 5'UTR Stem-Loop Driven Prion Protein mRNA Translation in H4 Neuroglioblastoma Cells. [Related pubchem assays: 1827 (Project Summary), 1813 (Primary HTS)]; type: functional
[15] = biological target: T2, DNA dC->dU-editing enzyme APOBEC-3G; assay: SAR analysis of small molecule inhibitors of APOBEC3G DNA Deaminase via a fluorescence-based single-stranded DNA deaminase assay - Set 2.; type: functional; conditions: read-out: IC50_Mean
[16] = inhibitors of SNCA 5'UTR-driven reporter translation, confirmation, H4 neuroglioma cells, luminescence (AID 1988); type: functional, cell-based
[17] = biological target: Beta-lactamase (Salmonella choleraesuis (strain SC-B67), UniProt Q5J463)
[18] = biological target: Cytochrome P450 2C19 (Homo sapiens, UniProt P33261); assay: Cytochrome panel assay with activity outcomes. Panel member name: p450-cyp2c19 Compounds with AC50 equal or less than 10 uM are considered active; type: functional; conditions: read-out: AC50
[19] = biological target: Cytochrome P450 2C9 (Homo sapiens, UniProt P11712)
[20] = biological target: T4, Glycogen synthase kinase-3 alpha (Homo sapiens, UniProt P49840); assay: human GSK3 alpha kinase inhibition, dose response, selectivity assay for GSK3beta inhibitor project, biochemical, microfluidics, dry powder samples, set 2 (AID 623978); type: functional
T4 sequence (P49840 whole entry): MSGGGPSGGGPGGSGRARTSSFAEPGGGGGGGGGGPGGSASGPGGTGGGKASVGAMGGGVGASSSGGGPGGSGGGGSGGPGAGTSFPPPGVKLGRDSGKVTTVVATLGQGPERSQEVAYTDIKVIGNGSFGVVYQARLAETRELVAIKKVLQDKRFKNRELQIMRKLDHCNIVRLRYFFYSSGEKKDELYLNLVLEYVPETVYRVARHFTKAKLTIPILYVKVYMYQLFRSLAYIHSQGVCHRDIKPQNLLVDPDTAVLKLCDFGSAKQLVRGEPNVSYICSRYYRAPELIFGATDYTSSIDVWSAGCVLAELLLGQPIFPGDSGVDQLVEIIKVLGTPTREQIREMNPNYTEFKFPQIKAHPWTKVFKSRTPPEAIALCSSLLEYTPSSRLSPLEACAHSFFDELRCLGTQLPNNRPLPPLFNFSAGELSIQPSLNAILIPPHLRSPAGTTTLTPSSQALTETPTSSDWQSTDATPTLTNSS

[21] = biological target: T5, Glycogen synthase kinase-3 beta (Homo sapiens, UniProt P49841); assay: GSK3beta kinase inhibitors, dose response, biochemical, microfluidics, dry powder samples, set 2 (AID 623989); type: functional
T5 sequence (P49841 whole entry): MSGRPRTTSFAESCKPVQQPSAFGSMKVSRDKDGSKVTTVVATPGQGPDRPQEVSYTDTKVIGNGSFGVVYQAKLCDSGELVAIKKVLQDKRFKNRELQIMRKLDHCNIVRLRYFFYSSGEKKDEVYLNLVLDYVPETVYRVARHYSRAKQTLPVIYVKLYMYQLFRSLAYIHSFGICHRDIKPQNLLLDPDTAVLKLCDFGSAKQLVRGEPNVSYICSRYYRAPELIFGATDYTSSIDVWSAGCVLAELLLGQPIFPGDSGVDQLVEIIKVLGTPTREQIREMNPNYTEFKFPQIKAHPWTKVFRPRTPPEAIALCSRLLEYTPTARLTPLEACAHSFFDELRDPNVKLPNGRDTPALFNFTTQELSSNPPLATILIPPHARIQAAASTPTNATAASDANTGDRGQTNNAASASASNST

[22] = biological target: Tyrosine-protein kinase Lck (Homo sapiens, UniProt P06239); type: functional;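 also: lck was assayed as one member of a kinase panel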
[23] = biological target: Tyrosine-protein kinase BTK (Homo sapiens, UniProt Q06187); type: functional
[24] = biological target: Mitogen-activated protein kinase 9 (Homo sapiens, UniProt P45984); type: functional;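 also: value from a kinome panel profiling assay, MAPK9 panel entry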
[25] = biological target: Tyrosine-protein kinase JAK3 (Homo sapiens, UniProt P52333); type: functional
[26] = biological target: Activated CDC42 kinase 1 (Homo sapiens, UniProt Q07912); assay: Navigating the Kinome. Panel member name: ACK1; type: functional
[27] = biological target: ALK tyrosine kinase receptor (Homo sapiens, UniProt Q9UM73); type: functional;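 also: ALK tested as one member of a kinase panel screen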
[28] = biological target: Inhibitor of nuclear factor kappa-B kinase subunit epsilon (Homo sapiens, UniProt Q14164); assay: Navigating the Kinome. Panel member name: IKBKE; type: functional
[29] = biological target: Mitogen-activated protein kinase kinase kinase kinase 4 (Homo sapiens, UniProt O95819); type: functional
Mitogen-activated protein kinase kinase kinase kinase 4, sequence (O95819 whole entry): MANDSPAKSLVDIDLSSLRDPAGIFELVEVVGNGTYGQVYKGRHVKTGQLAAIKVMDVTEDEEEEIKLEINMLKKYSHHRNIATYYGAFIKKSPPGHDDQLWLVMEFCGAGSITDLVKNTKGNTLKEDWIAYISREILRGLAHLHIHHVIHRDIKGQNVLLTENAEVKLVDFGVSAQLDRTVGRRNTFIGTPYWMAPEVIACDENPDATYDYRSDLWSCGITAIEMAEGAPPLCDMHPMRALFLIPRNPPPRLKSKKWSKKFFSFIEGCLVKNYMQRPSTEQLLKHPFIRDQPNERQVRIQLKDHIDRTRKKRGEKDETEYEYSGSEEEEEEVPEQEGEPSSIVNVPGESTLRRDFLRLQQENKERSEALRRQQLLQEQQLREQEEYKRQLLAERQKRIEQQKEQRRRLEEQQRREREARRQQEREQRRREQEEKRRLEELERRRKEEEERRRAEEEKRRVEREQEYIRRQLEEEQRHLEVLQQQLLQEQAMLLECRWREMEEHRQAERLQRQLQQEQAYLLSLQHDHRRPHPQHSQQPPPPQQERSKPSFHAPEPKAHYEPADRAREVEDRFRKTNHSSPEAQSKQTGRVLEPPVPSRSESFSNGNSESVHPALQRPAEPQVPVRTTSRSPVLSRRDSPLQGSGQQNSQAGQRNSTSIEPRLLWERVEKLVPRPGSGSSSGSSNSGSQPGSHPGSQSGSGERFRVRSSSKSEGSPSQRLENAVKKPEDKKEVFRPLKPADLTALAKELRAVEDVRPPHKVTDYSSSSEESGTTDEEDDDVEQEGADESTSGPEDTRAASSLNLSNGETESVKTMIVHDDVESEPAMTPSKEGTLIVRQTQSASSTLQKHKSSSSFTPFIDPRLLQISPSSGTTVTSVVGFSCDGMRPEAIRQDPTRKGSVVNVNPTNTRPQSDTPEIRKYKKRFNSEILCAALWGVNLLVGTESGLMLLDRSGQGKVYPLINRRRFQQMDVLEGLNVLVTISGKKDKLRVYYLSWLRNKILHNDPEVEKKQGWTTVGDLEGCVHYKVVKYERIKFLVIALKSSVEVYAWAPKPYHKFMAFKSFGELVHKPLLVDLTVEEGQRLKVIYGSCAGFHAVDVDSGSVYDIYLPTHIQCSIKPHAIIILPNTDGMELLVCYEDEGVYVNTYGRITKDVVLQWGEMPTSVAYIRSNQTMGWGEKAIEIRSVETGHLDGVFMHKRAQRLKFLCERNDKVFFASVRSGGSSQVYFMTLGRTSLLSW

[30] = biological target: Serine/threonine-protein kinase N2 (Homo sapiens, UniProt Q16513); type: functional
[31] = biological target: Dual specificity protein kinase CLK2 (Homo sapiens, UniProt P49760); type: functional
[32] = biological target: Serine/threonine-protein kinase TAO1 (Homo sapiens, UniProt Q7L7X3); type: functional
[33] = biological target: Mitogen-activated protein kinase kinase kinase kinase 5 (Homo sapiens, UniProt Q9Y4K4); type: functional;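 also: measured as one member of a kinome-spanning kinase panel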
[34] = biological target: Tyrosine-protein kinase Fyn (Homo sapiens, UniProt P06241); type: functional
[35] = biological target: Mitogen-activated protein kinase 14 (Homo sapiens, UniProt Q16539); type: functional;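 also: part of a kinome-wide panel, MAPK14 entry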
Mitogen-activated protein kinase 14, sequence (Q16539 whole entry): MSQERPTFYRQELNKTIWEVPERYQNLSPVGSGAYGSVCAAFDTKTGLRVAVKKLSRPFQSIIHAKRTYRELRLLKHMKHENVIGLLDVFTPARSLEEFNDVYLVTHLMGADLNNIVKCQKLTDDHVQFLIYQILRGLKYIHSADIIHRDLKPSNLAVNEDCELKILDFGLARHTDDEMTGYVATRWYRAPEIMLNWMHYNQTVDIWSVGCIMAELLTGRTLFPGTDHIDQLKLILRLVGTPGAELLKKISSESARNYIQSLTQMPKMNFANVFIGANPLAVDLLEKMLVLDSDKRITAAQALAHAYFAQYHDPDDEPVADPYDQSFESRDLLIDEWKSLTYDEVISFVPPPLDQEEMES

[36] = biological target: Vascular endothelial growth factor receptor 1 (Homo sapiens, UniProt P17948); type: functional;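 also: measured within a kinome-wide profiling panel, FLT1 as the panel member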
[37] = biological target: T5, Glycogen synthase kinase-3 beta; type: functional
[38] = biological target: Serine/threonine-protein kinase pim-1 (Homo sapiens, UniProt P11309); type: functional
Serine/threonine-protein kinase pim-1, sequence (P11309 whole entry): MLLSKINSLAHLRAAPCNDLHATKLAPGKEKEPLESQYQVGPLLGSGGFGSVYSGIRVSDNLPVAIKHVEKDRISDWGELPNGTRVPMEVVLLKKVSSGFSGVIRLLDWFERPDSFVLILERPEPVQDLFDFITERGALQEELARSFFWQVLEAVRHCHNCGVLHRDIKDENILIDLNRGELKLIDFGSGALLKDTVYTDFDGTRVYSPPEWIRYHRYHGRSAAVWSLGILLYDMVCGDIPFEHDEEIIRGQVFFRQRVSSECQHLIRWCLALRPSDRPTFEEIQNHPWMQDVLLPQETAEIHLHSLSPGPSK

[39] = biological target: Calcium/calmodulin-dependent protein kinase type II subunit alpha (Homo sapiens, UniProt Q9UQM7); assay: Navigating the Kinome. Panel member name: CAMK2A; type: functional
[40] = biological target: Serine/threonine-protein kinase D3 (Homo sapiens, UniProt O94806); type: functional;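 also: determined within a kinase panel screen, with PRKCN as the panel member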
[41] = biological target: Cyclin-dependent kinase 8 (Homo sapiens, UniProt P49336); assay: Navigating the Kinome. Panel member name: CDK8; type: functional
[42] = biological target: Tyrosine-protein kinase ABL1 (Homo sapiens, UniProt P00519); type: functional
[43] = biological target: Casein kinase I isoform alpha (Homo sapiens, UniProt P48729); type: functional
Casein kinase I isoform alpha, sequence (P48729 whole entry, canonical isoform): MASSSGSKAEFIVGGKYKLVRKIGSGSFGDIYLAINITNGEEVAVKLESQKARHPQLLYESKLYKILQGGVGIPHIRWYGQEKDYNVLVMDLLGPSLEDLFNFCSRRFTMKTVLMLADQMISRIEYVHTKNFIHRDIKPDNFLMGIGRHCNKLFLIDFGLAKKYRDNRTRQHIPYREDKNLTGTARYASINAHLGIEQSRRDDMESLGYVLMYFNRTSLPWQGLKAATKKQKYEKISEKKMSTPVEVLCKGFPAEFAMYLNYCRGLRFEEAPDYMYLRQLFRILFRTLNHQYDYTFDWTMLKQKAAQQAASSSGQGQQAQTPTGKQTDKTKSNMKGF

[44] = biological target: Macrophage-stimulating protein receptor (Homo sapiens, UniProt Q04912); assay: Navigating the Kinome. Panel member name: MST1R; type: functional
[45] = biological target: BDNF/NT-3 growth factors receptor (Homo sapiens, UniProt Q16620); type: functional;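 also: NTRK2 measured as one member of a broad kinome-wide kinase profiling panel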
[46] = biological target: Mast/stem cell growth factor receptor Kit (Homo sapiens, UniProt P10721); type: functional;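 also: KIT entry within a kinase panel assay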
[47] = biological target: Ribosomal protein S6 kinase alpha-3 (Homo sapiens, UniProt P51812); type: functional;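 also: measured within a kinome-wide profiling panel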
[48] = biological target: T4, Glycogen synthase kinase-3 alpha; type: functional
[49] = biological target: Mitogen-activated protein kinase 8 (Homo sapiens, UniProt P45983); type: functional;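 also: value comes from one member of a kinome-wide kinase profiling panel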
[50] = biological target: Fibroblast growth factor receptor 1 (Homo sapiens, UniProt P11362); type: functional
[51] = biological target: Death-associated protein kinase 3 (Homo sapiens, UniProt O43293); type: functional;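 also: measured as one member of a kinome-wide profiling panel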
[52] = biological target: Focal adhesion kinase 1 (Homo sapiens, UniProt Q05397); type: functional;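 also: measured as one member of a kinome panel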
Focal adhesion kinase 1, sequence (Q05397 whole entry): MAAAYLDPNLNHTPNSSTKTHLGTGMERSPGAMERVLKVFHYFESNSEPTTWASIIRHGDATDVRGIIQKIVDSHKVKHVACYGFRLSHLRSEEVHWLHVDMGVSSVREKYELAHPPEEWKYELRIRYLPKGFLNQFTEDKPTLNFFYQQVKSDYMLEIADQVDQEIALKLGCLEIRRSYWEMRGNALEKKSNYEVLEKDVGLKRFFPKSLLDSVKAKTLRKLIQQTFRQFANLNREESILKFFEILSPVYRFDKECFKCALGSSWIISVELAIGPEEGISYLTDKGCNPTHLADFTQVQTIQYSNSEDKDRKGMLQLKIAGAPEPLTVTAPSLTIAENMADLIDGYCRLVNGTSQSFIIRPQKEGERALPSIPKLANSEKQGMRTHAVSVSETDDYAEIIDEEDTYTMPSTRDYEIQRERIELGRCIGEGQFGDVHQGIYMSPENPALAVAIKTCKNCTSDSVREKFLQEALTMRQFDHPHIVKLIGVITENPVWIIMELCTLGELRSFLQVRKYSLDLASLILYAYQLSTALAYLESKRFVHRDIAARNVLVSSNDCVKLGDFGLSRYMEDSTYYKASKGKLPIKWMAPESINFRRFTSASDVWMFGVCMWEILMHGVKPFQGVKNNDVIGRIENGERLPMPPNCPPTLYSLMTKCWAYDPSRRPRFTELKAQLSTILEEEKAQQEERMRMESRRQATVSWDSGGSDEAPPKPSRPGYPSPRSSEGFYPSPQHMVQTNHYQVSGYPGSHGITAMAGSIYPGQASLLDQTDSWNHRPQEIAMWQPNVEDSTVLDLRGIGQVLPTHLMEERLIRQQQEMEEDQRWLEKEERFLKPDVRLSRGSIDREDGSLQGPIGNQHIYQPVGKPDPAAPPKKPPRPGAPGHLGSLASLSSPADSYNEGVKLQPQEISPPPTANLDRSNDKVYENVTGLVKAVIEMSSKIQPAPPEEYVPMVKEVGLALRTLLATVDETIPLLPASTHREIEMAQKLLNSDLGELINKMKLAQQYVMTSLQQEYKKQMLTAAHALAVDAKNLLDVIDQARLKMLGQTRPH

[53] = biological target: G protein-coupled receptor kinase 5 (Homo sapiens, UniProt P34947); assay: Navigating the Kinome. Panel member name: GPRK5; type: functional
[54] = biological target: Interleukin-1 receptor-associated kinase 4 (Homo sapiens, UniProt Q9NWZ3); type: functional
[55] = biological target: Homeodomain-interacting protein kinase 2 (Homo sapiens, UniProt Q9H2X6); type: functional;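 also: measured within a kinome-wide kinase profiling panel, HIPK2 being one panel member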
[56] = biological target: cAMP-dependent protein kinase catalytic subunit alpha (Homo sapiens, UniProt P17612); type: functional
[57] = biological target: Cell division cycle 7-related protein kinase (Homo sapiens, UniProt O00311); type: functional;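 also: value obtained from a kinome-wide kinase panel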
[58] = biological target: Dual specificity protein kinase CLK4 (Homo sapiens, UniProt Q9HAZ1); type: functional

CCOc1c(F)cc(Oc2c(Cl)cnn(Cc3cccc4ccccc34)c2=O)cc1F
IC50 [1]: 9.19 µM (active) | IC50 [2]: 2.37 µM (active)

Cc1ccc2[nH]cc(/C=C/c3cc[n+](C)cc3)c2c1
IC50 [3]: > 100 µM (inactive) | IC50 [4]: > 99 µM (inactive) | IC50 [5]: > 99 µM (inactive) | EC50 [6]: 1.43 µM (active) | IC50 [7]: > 99 µM (inactive) | AC50 [8]: 4.88 µM (active) | IC50 [9]: 3.49 µM (active) | AC50 [10]: 1.49 µM (active) | EC50 [11]: > 60 µM (not active) | IC50 [12]: > 59.6 µM (inactive) | EC50 [13]: 9.85 µM (active) | EC50 [14]: 13.6 µM (active) | IC50 [15]: > 99 µM (inactive) | EC50 [16]: 12.2 µM (active) | IC50 [17]: 49.2 µM (inactive)

COC(=O)C(C)Sc1ccc2nnc(-c3ccc(F)cc3)n2n1 (stereo unspecified)
AC50 [18]: 39.8 µM (inconclusive) | AC50 [19]: 3.55 µM (inconclusive) | AC50 [20]: 5.24 µM (active) | AC50 [21]: 1.24 µM (active)

CC(C)C(CO)NC(=O)c1cccc(-n2nc(C(C)(C)C)cc2NC(=O)Nc2cccc3ccccc23)c1 (stereo unspecified)
Ki [22]: > 6.31 µM (inactive) | Ki [23]: > 6.31 µM (inactive) | Ki [24]: 0.316 µM (active) | Ki [25]: > 5.01 µM (inactive) | Ki [26]: > 3.98 µM (inactive) | Ki [27]: > 6.31 µM (inactive) | Ki [28]: > 3.16 µM (inactive) | Ki [29]: > 5.01 µM (inactive) | Ki [30]: 0.398 µM (active) | Ki [31]: > 3.98 µM (inactive) | Ki [32]: > 6.31 µM (inactive) | Ki [33]: > 3.98 µM (inactive) | Ki [34]: > 6.31 µM (inactive) | Ki [35]: 398 nM (active) and 501 nM (active) | Ki [36]: > 3.98 µM (inactive) | Ki [37]: > 3.98 µM (inactive) | Ki [38]: > 6.31 µM (inactive) | Ki [39]: > 7.94 µM (inactive) | Ki [40]: > 3.98 µM (inactive) | Ki [41]: 2.51 µM (active) | Ki [42]: > 3.98 µM (inactive) | Ki [43]: > 3.98 µM (inactive) | Ki [44]: > 3.98 µM (inactive) | Ki [45]: > 3.98 µM (inactive) | Ki [46]: > 3.98 µM (inactive) | Ki [47]: > 3.98 µM (inactive) | Ki [48]: > 3.98 µM (inactive) | Ki [49]: > 5.01 µM (inactive) | Ki [50]: > 3.98 µM (inactive) | Ki [51]: > 5.01 µM (inactive) | Ki [52]: > 6.31 µM (inactive) and > 5.01 µM (inactive) | Ki [53]: > 3.98 µM (inactive)

Cc1cccc(CNc2cc(-c3c[nH]c4ncccc34)cc(Cl)n2)c1C
Ki [54]: > 10 µM (inactive) | Ki [29]: 0.00398 µM (active) | Ki [55]: 0.398 µM (active) | Ki [56]: 0.158 µM (active) | Ki [57]: 0.00126 µM (active) | Ki [37]: 0.0251 µM (active) | Ki [38]: 0.501 µM (active) | Ki [58]: 0.00501 µM (active)
